Data taken from ChEMBL document CHEMBL6103541, “Ringing medicinal chemistry: The importance of 3-membered rings in drug discovery” (Bioorg Med Chem, 2024).
pIC50, pKi: −log10 of the molar value. ≈ marks a conversion by molar mass, not a printed value. *1 amine or outer side, *2 acyl side, *3 side chain or, on linkers, in order; H or OH if unused. Where a SMILES comes first, the peptide text is derived from it. [ ]: non-standard residue; d: D form. The star is where a group is joined. X1 = CCCC(N[*:1])C(=O)C(=O)[*:2]; Chg = N[C@H](C(=O)O)C1CCCCC1; Phg = N[C@H](C(=O)O)c1ccccc1; Boc = CC(C)(C)OC(=O)*

Key:
[1] = system: Staphylococcus aureus; assay: Antibacterial activity against Staphylococcus aureus ATCC 25923 assessed as bacterial growth inhibition measured after 18 hrs by CLSI protocol based two-fold serial microdilution method; type: functional
[2] = system: Streptococcus pneumoniae; assay: Antibacterial activity against Streptococcus pneumoniae ATCC 49619 assessed as inhibition of bacterial growth incubated for 24 hrs by CLSI protocol based broth micro-dilution method; type: functional
[3] = system: Pseudomonas aeruginosa; assay: Antibacterial activity against Pseudomonas aeruginosa ATCC 15442 assessed as reduction in bacterial cell growth incubated for 18 hrs by two fold serial microdilution method; type: functional
[4] = system: Escherichia coli; assay: Antibacterial activity against Escherichia coli assessed as reduction in bacterial growth by broth microdilution method; type: functional
[5] = system: HPAC; assay: Antiproliferative activity against human HPAC cells assessed as inhibition of cell growth measured after 72 hrs by MTT assay; type: functional, cell-based
[6] = system: Capan-2; assay: Antiproliferative activity against human Capan-2 cells assessed as reduction in cell viability incubated for 72 hrs by MTT assay; type: functional, cell-based; conditions: Capan-2, 72 h
[7] = molecular target: T1, NS3 protease (Hepacivirus C, UniProt C1KIQ2); assay: Binding affinity to HCV NS3 protease assessed as inhibition constant; parameters: species or system Hepacivirus hominis
[8] = molecular target: Human immunodeficiency virus type 1 reverse transcriptase (Human immunodeficiency virus 1, UniProt Q72547); assay: Inhibition of HIV-1 reverse transcriptase
[9] = Inhibition of LPS-induced NFkappaB activation in mouse RAW264.7 cells assessed as inhibition of IKKalpha phosphorylation level incubated for 1 hrs by Western blot analysis; type: cell-based; conditions: RAW264.7, 1 h
[10] = system: BT-549; assay: Cytotoxicity against human BT-549 cells assessed as inhibition of cell growth incubated for 72 hrs by MTT assay; type: functional, cell-based; conditions: BT-549, 72 h
[11] = system: MDA-MB-231; assay: Antiproliferative activity against human MDA-MB-231 cells assessed as reduction in cell viability incubated for 72 hrs by MTT assay; type: functional, cell-based; conditions: MDA-MB-231, 72 h
[12] = Inhibition of 20s constitutive proteasome beta-5c (unknown origin); parameters: species or system Homo sapiens
[13] = system: Staphylococcus aureus; assay: Antibacterial activity against Staphylococcus aureus; type: functional
[14] = system: Thermus thermophilus; assay: Antibacterial activity against Thermus thermophilus; type: functional, organism-based
[15] = Half life in Wistar rat at 10 mg/kg, iv measured for 24 hrs by LC-MS/MS analysis; type: ADME, organism-based; conditions: in vivo
[16] = Volume of distribution at steady state in Wistar rat at 10 mg/kg, iv measured for 24 hrs by LC-MS/MS analysis; type: ADME, organism-based; conditions: in vivo
[17] = system: Staphylococcus aureus; assay: In vivo antibacterial activity against Staphylococcus aureus infected mouse model assessed as curative dose; type: functional
[18] = system: Staphylococcus aureus; assay: In vivo antibacterial activity against streptomycin-resistant Staphylococcus aureus infected mouse model assessed as curative dose; type: functional
[19] = system: Staphylococcus aureus; assay: In vivo antibacterial activity against erythromycin-resistant Staphylococcus aureus infected mouse model assessed as curative dose; type: functional
[20] = system: Hepatitis C virus; assay: Antiviral activity against Hepatitis C virus infected in human Huh7.5 cells assessed as reduction in viral replication; type: functional, Hepacivirus hominis
[21] = molecular target: T1, NS3 protease; assay: Inhibition of Hepatitis C virus genotype 1b NS3 protease; parameters: species or system Hepacivirus hominis
[22] = molecular target: T1, NS3 protease; assay: Binding affinity to Hepatitis C virus genotype 1a NS3 protease assessed as inhibition constant; parameters: species or system Hepacivirus hominis
[23] = molecular target: T1, NS3 protease; assay: Binding affinity to Hepatitis C virus genotype 1b NS3 protease assessed as inhibition constant; parameters: species or system Hepacivirus hominis
[24] = system: SK-N-FI; assay: Antiproliferative activity against human SK-N-FI cells; type: functional, cell-based
[25] = molecular target: Vascular endothelial growth factor receptor 1 (Homo sapiens, UniProt P17948); assay: Inhibition of VEGFR1 (unknown origin)
[26] = molecular target: Vascular endothelial growth factor receptor 3 (Homo sapiens, UniProt P35916); assay: Inhibition of VEGFR3 (unknown origin)
[27] = molecular target: Fibroblast growth factor receptor 1 (Homo sapiens, UniProt P11362); assay: Inhibition of FGFR1 (unknown origin)
[28] = molecular target: Fibroblast growth factor receptor 3 (Homo sapiens, UniProt P22607); assay: Inhibition of FGFR3 (unknown origin)
[29] = molecular target: Fibroblast growth factor receptor 4 (Homo sapiens, UniProt P22455); assay: Inhibition of FGFR4 (unknown origin)
[30] = Inhibition of PDGFR (unknown origin); parameters: species or system Homo sapiens
[31] = system: SK-BR-3; assay: Antiproliferative activity against human SK-BR-3 cells; type: functional, cell-based
[32] = system: MCF7; assay: Antiproliferative activity against human MCF7 cells assessed as reduction in cell viability incubated for 48 hrs by MTT assay; type: functional, cell-based; conditions: MCF7, 48 h
[33] = molecular target: Tubulin; assay: Inhibition of tubulin polymerization (unknown origin); type: protein-complex assay, Homo sapiens
[34] = system: SCaBER; assay: Antiproliferative activity against human SCaBER cells; type: functional, cell-based
[35] = system: J82; assay: Antiproliferative activity against human J82 cells; type: functional, cell-based
[36] = Inhibition of PK1 (unknown origin); parameters: species or system Homo sapiens
[37] = system: Staphylococcus epidermidis; assay: microbe, parasite or virus in culture
Description: Antibacterial activity against Staphylococcus epidermidis

[38] = system: Staphylococcus saprophyticus; assay: microbe, parasite or virus in culture
Description: Antibacterial activity against Staphylococcus saprophyticus

[39] = system: Staphylococcus aureus; assay: microbe, parasite or virus in culture
Description: Antibacterial activity against Methicillin-resistant staphylococcus aureus

T1 sequence (C1KIQ2 whole entry): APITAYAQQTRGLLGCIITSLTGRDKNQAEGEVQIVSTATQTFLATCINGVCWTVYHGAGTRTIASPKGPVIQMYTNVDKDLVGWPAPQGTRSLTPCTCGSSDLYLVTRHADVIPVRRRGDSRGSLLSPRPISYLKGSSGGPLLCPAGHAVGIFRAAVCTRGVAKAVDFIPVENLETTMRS
Vascular endothelial growth factor receptor 3, sequence (P35916 whole entry): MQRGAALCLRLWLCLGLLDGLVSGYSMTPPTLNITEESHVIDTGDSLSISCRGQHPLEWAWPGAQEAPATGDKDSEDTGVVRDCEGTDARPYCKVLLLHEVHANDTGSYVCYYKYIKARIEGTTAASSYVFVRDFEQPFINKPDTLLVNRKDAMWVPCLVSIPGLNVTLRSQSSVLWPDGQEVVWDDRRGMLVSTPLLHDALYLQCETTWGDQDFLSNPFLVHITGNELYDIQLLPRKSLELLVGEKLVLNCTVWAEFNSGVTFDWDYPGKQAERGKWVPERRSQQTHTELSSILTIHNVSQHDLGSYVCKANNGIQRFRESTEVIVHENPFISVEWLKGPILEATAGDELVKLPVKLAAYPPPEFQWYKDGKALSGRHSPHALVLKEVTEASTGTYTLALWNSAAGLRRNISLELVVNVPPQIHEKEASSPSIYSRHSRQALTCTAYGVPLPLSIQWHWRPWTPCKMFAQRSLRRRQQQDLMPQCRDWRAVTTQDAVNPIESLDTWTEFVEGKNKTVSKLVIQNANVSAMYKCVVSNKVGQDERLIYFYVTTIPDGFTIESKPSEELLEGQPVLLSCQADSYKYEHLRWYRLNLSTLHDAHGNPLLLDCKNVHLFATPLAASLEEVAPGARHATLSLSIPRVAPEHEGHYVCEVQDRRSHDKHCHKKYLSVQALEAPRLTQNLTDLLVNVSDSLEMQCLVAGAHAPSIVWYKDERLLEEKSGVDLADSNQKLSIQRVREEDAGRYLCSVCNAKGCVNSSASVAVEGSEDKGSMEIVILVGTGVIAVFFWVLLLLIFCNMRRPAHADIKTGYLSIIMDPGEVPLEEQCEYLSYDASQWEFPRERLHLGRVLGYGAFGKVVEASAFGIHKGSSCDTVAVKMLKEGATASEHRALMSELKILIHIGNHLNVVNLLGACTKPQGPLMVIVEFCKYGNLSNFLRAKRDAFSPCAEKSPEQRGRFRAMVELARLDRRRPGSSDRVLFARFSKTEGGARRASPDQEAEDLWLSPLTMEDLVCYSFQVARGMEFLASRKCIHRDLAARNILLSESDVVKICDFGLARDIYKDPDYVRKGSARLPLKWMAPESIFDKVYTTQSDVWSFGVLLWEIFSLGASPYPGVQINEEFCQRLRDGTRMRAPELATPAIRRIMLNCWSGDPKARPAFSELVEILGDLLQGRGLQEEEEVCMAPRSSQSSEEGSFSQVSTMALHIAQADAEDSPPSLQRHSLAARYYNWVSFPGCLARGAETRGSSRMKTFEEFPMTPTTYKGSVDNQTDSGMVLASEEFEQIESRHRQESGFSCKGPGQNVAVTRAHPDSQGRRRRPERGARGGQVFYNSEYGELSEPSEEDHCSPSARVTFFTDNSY
Vascular endothelial growth factor receptor 1, sequence (P17948 whole entry): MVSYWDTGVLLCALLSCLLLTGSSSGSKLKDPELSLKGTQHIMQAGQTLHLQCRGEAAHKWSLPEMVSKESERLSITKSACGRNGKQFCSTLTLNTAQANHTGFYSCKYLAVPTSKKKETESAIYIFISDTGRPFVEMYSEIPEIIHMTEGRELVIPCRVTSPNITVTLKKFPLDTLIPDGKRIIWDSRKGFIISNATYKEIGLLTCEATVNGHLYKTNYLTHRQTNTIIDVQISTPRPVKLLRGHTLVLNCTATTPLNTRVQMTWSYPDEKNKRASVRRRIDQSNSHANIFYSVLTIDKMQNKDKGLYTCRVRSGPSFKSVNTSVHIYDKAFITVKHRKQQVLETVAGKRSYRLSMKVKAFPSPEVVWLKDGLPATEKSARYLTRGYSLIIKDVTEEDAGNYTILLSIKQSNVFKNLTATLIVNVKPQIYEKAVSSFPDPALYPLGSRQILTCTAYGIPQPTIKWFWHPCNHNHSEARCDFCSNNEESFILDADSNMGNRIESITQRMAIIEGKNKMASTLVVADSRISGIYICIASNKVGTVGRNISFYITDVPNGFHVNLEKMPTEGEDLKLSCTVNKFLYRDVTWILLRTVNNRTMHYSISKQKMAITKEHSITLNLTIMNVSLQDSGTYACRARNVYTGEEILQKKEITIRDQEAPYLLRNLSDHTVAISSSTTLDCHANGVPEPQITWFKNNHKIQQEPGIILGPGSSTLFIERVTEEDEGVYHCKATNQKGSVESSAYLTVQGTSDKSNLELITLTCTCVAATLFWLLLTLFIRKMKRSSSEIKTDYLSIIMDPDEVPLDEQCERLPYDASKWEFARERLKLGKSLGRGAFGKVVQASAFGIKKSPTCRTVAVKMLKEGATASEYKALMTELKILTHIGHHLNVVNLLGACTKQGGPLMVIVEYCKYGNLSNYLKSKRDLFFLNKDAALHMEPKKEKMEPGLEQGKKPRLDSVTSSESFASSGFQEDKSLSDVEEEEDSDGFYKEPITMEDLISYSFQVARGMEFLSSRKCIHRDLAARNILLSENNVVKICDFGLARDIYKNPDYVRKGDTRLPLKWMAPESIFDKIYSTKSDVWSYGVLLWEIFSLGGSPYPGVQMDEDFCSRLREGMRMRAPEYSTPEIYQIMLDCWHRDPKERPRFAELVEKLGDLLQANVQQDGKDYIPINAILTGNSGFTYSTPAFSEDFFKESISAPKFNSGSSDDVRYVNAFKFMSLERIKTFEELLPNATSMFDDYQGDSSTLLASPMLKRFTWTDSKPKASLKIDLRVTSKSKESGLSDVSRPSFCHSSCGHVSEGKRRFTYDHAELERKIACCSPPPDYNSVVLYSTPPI
Fibroblast growth factor receptor 4, sequence (P22455 whole entry): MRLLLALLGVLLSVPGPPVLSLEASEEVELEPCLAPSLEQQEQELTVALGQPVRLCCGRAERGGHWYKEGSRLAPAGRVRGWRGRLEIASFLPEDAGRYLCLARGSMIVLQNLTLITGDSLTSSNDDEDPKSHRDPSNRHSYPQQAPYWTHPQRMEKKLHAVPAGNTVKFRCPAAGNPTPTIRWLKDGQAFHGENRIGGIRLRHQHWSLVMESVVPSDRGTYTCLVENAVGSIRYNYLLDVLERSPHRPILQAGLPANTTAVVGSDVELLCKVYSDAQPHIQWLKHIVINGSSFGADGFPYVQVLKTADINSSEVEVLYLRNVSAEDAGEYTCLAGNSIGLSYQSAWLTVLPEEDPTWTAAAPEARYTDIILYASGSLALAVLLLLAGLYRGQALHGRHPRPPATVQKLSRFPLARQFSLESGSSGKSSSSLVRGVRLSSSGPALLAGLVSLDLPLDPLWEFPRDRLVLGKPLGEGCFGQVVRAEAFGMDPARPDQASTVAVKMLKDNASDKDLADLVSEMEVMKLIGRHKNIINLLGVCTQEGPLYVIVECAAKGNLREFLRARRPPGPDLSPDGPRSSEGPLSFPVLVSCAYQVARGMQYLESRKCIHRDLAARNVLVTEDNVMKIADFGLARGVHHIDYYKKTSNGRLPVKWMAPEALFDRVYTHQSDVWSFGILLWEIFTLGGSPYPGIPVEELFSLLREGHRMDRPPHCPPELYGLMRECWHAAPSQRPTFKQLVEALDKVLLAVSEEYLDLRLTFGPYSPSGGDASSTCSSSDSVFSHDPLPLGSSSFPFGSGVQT
Fibroblast growth factor receptor 1, sequence (P11362 whole entry): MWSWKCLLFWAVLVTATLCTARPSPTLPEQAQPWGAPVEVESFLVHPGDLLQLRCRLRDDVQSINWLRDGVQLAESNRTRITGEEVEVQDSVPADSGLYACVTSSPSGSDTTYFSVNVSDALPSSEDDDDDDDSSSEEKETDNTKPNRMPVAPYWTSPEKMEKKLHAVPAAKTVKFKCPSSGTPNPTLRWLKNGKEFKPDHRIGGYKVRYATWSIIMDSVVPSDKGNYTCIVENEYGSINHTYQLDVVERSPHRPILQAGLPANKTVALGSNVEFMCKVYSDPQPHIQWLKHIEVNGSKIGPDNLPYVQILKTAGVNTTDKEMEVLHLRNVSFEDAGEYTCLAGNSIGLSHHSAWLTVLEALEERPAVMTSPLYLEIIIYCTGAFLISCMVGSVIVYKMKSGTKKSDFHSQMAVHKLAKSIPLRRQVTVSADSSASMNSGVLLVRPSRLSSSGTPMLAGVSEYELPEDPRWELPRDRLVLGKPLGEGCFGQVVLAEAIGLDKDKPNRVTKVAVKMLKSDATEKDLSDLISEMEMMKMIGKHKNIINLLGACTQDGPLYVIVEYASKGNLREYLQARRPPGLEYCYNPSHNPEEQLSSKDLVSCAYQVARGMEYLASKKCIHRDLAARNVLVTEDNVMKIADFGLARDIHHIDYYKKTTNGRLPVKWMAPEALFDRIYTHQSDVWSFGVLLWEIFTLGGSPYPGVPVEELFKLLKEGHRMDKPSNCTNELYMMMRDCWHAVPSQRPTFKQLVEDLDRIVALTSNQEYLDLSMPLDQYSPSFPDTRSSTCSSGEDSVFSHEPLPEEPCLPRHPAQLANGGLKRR

CCn1cc(C(=O)O)c(=O)c2cc(F)c(N3CCNCC3)cc21 [NORFLOXACIN]
MIC [1]: ≤ 0.06 µg/mL | MIC [2]: ≤ 0.06 µg/mL | MIC [3]: ≤ 0.06 µg/mL | MIC [4]: ≤ 0.06 µg/mL

CCn1c(-c2cc(N3CCN(C)CC3)cnc2[C@H](C)OC)c2c3cc(ccc31)-c1csc(n1)C[C@H](NC(=O)[C@H]1C[C@@H]1C)C(=O)N1CCC[C@H](N1)C(=O)OCC(C)(C)C2
pIC50 [5]: 8.92 | pIC50 [6]: 8.85

CCN1c2ncccc2C(=O)Nc2c(C)ccnc21
pKi [7]: 8.00 | pIC50 [8]: 7.52

CC1=C(CO)C(=O)O[C@@H]([C@@H](C)[C@H]2CC[C@H]3[C@@H]4C[C@H]5O[C@]56[C@@H](O)C=CC(=O)[C@]6(C)[C@H]4CC[C@]23C)C1 [WITHAFERIN A]
pIC50 [9]: 6.60

CC(C)C[C@H](NC(=O)[C@H](CCc1ccccc1)NC(=O)CN1CCOCC1)C(=O)N[C@@H](Cc1ccccc1)C(=O)N[C@@H](CC(C)C)C(=O)[C@@]1(C)CO1 [CARFILZOMIB]
pIC50 [10]: 7.97 | pIC50 [11]: 7.65 | pIC50 [12]: 8.22

C/C(=C\C(=O)OCCCCCCCCC(=O)O)C[C@@H]1OC[C@H](C[C@@H]2O[C@H]2[C@@H](C)[C@H](C)O)[C@@H](O)[C@H]1O [MUPIROCIN]
MIC [13]: 0.1 µg/mL (≈ 0.2 µM) | pIC50 [14]: 6.05

CC[C@@H]1C(=O)N(C)c2cnc(Nc3ccc(C(=O)NC4CCN(C)CC4)cc3OC)nc2N1C1CCCC1 [BI-2536]
half-life [15]: < 50 h | Vd [16]: 750 L

COC[C@H](NC(=O)c1cnc(C)s1)C(=O)N[C@@H](COC)C(=O)N[C@@H](Cc1ccccc1)C(=O)[C@@]1(C)CO1 [OPROZOMIB]
pIC50 [10]: 7.30 | pIC50 [11]: 7.10 | pIC50 [12]: 7.44

CC(C)[C@H](N)C(=O)N[C@H](C(=O)O)[C@@H]1C[C@H](NC(=N)N)[C@@H]2CN21 (some centres not stated)
CD50 [17]: 7.6 mg/kg | CD50 [18]: 10 mg/kg | CD50 [19]: 11 mg/kg

CC[C@@H]1C(=O)N(C)c2cnc(Nc3ccc(C(=O)N[C@H]4CC[C@H](N5CCN(CC6CC6)CC5)CC4)cc3OC)nc2N1C(C)C [VOLASERTIB]
half-life [15]: > 110 h | Vd [16]: > 4000 L

CC(C)(C)NC(=O)N[C@H](C(=O)N1C[C@H]2[C@@H]([C@H]1C(=O)NC(CC1CCC1)C(=O)C(N)=O)C2(C)C)C(C)(C)C (some centres not stated) [BOCEPREVIR]
pKi [7]: 7.85 | EC90 [20]: 350 nM

COc1ccc2c(O[C@@H]3C[C@H]4C(=O)N[C@]5(C(=O)NS(=O)(=O)C6CC6)C[C@H]5/C=C\CCCCN(C)C(=O)[C@@H]4C3)cc(-c3nc(C(C)C)cs3)nc2c1C
pIC50 [21]: 8.10 | pKi [22]: 9.30 | pKi [23]: 9.40

C/C1=C/C[C@@H](/C(C)=C/c2csc(C)n2)OC(=O)C[C@H](O)C(C)(C)C(=O)[C@H](C)[C@@H](O)[C@@H](C)CCC1 [EPOTHILONE D]
pIC50 [24]: 7.34

COc1ccc2c(O[C@@H]3C[C@H]4C(=O)N[C@]5(C(=O)O)C[C@H]5/C=C/CCCCC[C@H](NC(=O)OC5CCCC5)C(=O)N4C3)cc(-c3csc(NC(C)C)n3)cc2c1
pIC50 [21]: 8.52 | pKi [22]: 9.52 | pKi [23]: 8.52

COc1cc2nccc(Oc3ccc(NC(=O)NC4CC4)c(Cl)c3)c2cc1C(N)=O [LENVATINIB]
pIC50 [25]: 8.70 | pIC50 [26]: 8.70 | pIC50 [27]: 7.57 | pIC50 [28]: 7.57 | pIC50 [29]: 7.57 | pIC50 [30]: 7.54

COc1cc2cc(c1Cl)N(C)C(=O)C[C@H](OC(=O)[C@@H](C)N(C)C(=O)CCS)[C@]1(C)O[C@H]1[C@H](C)[C@@H]1C[C@@](O)(NC(=O)O1)[C@H](OC)/C=C/C=C(\C)C2
pIC50 [31]: 8.96

C/C(=C\c1csc(C)n1)[C@@H]1C[C@@H]2O[C@]2(C)CCC[C@H](C)[C@H](O)[C@@H](C)C(=O)C(C)(C)[C@@H](O)CC(=O)N1 [IXABEPILONE]
pIC50 [24]: 8.00

C[C@]12C[C@H]3S[C@H]3C[C@@H]1CC[C@@H]1[C@@H]2CC[C@]2(C)[C@@H](O)CC[C@@H]12 [EPITIOSTANOL]
pIC50 [32]: 7.52

C/C(=C\c1csc(C)n1)[C@@H]1C[C@@H]2O[C@]2(C)CCC[C@H](C)[C@H](O)[C@@H](C)C(=O)C(C)(C)[C@@H](O)CC(=O)O1 [PATUPILONE]
pIC50 [33]: 8.74 | pIC50 [24]: 8.00

CCCC(NC(=O)[C@H](CC(C)C)NC(=O)[C@@H](NC(=O)OC(C)(C)C)C1CCCCC1)C(=O)C(=O)NCC(=O)N[C@H](C(N)=O)c1ccccc1 (some centres not stated) (Boc-[Chg]L[X1]G[Phg]-NH2)
pKi [7]: 7.18 | EC90 [20]: 200 nM

CO[C@@]12[C@H](COC(N)=O)C3=C(C(=O)C(C)=C(N)C3=O)N1C[C@@H]1N[C@@H]12 [MITOMYCIN]
pIC50 [34]: 5.82 | pIC50 [35]: 6.52 | pIC50 [36]: 6.54

O=C(O)c1cn(C2CC2)c2cc(N3CCNCC3)c(F)cc2c1=O [CIPROFLOXACIN]
MIC [37]: < 1 µg/mL | MIC [38]: < 1 µg/mL | MIC [39]: 0.12 µg/mL (≈ 0.362 µM)
